Test results as given in paper PMC11842588, “A first-in-class selective inhibitor of ERK1/2 and ERK5 overcomes drug resistance with a single-molecule strategy” (Signal Transduction and Targeted Therapy, 2025).

Assays:
Assay in all cases: Kinase profiling
Format in all cases: biochemical
MAP4K3(h) = target: T1, MAP4K3(h) (Homo sapiens, UniProt Q8IVH8)
T1 construct: purchased Eurofins Cerep SA (KinaseProfiler)
Method: (§1) 380 kinases inhibitory activities of SKLB-D18 were conducted by Eurofins Cerep SA. The result was illustrated by kinase tree (http://www.kinhub.org/kinmap/).

Itk(h) = target: T2, Itk(h) (Homo sapiens, UniProt Q08881)
T2 construct: purchased Eurofins Cerep SA (KinaseProfiler)
Method: as §1

Pyk2(h) = target: T3, Pyk2(h) (Homo sapiens, UniProt Q14289)
T3 construct: purchased Eurofins Cerep SA (KinaseProfiler)
Method: as §1

TrkA(h) = target: T4, TrkA(h) (Homo sapiens, UniProt P04629)
T4 construct: purchased Eurofins Cerep SA (KinaseProfiler)
Method: as §1

SRPK1(h) = target: T5, SRPK1(h) (Homo sapiens, UniProt Q96SB4)
T5 construct: purchased Eurofins Cerep SA (KinaseProfiler)
T5 sequence (Q96SB4 whole entry): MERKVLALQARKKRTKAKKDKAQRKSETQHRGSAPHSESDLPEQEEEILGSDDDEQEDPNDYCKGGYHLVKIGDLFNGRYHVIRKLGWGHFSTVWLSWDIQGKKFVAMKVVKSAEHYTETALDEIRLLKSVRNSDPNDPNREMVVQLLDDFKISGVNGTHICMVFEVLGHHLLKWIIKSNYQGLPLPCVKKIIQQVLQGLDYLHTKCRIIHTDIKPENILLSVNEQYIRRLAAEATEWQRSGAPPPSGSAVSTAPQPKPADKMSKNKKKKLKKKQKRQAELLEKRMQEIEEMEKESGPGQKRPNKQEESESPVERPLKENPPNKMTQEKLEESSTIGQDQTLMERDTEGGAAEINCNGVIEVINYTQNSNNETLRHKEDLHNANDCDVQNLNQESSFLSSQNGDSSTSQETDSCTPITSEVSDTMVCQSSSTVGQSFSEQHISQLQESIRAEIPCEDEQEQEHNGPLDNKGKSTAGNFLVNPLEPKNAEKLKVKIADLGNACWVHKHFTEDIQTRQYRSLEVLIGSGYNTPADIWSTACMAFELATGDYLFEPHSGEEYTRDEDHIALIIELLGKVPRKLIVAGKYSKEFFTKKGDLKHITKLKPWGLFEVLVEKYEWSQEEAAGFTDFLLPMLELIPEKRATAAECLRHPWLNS
Method: as §1

TrkC(h) = target: T6, TrkC(h) (Homo sapiens, UniProt Q16288)
T6 construct: purchased Eurofins Cerep SA (KinaseProfiler)
Method: as §1

PKD2(h) = target: T7, PKD2(h) (Homo sapiens, UniProt Q9BZL6)
T7 construct: purchased Eurofins Cerep SA (KinaseProfiler)
Method: as §1

NLK(h) = target: T8, NLK(h) (Homo sapiens, UniProt Q9UBE8)
T8 construct: purchased Eurofins Cerep SA (KinaseProfiler)
Method: as §1

MEK1(h) = target: T9, MEK1(h) (Homo sapiens, UniProt Q02750)
T9 construct: purchased Eurofins Cerep SA (KinaseProfiler)
T9 sequence (Q02750 whole entry): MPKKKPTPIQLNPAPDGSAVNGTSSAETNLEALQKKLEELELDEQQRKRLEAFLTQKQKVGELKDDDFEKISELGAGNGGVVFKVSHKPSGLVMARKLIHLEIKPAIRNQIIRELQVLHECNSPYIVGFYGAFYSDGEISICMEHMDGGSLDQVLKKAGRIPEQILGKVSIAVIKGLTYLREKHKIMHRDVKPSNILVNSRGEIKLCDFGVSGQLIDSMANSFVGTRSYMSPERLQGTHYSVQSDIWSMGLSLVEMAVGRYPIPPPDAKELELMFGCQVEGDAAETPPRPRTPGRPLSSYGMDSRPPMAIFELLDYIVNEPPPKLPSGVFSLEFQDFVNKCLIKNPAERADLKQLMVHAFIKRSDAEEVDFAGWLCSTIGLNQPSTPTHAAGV
Method: as §1

DDR2(h) = target: T10, DDR2(h) (Homo sapiens, UniProt Q16832)
T10 construct: purchased Eurofins Cerep SA (KinaseProfiler)
Method: as §1

DYRK2(h) = target: T11, DYRK2(h) (Homo sapiens, UniProt Q92630)
T11 construct: purchased Eurofins Cerep SA (KinaseProfiler)
Method: as §1

TSSK3(h) = target: T12, TSSK3(h) (Homo sapiens, UniProt Q96PN8)
T12 construct: purchased Eurofins Cerep SA (KinaseProfiler)
Method: as §1

NEK1(h) = target: T13, NEK1(h) (Homo sapiens, UniProt Q96PY6)
T13 construct: purchased Eurofins Cerep SA (KinaseProfiler)
T13 sequence (Q96PY6 whole entry): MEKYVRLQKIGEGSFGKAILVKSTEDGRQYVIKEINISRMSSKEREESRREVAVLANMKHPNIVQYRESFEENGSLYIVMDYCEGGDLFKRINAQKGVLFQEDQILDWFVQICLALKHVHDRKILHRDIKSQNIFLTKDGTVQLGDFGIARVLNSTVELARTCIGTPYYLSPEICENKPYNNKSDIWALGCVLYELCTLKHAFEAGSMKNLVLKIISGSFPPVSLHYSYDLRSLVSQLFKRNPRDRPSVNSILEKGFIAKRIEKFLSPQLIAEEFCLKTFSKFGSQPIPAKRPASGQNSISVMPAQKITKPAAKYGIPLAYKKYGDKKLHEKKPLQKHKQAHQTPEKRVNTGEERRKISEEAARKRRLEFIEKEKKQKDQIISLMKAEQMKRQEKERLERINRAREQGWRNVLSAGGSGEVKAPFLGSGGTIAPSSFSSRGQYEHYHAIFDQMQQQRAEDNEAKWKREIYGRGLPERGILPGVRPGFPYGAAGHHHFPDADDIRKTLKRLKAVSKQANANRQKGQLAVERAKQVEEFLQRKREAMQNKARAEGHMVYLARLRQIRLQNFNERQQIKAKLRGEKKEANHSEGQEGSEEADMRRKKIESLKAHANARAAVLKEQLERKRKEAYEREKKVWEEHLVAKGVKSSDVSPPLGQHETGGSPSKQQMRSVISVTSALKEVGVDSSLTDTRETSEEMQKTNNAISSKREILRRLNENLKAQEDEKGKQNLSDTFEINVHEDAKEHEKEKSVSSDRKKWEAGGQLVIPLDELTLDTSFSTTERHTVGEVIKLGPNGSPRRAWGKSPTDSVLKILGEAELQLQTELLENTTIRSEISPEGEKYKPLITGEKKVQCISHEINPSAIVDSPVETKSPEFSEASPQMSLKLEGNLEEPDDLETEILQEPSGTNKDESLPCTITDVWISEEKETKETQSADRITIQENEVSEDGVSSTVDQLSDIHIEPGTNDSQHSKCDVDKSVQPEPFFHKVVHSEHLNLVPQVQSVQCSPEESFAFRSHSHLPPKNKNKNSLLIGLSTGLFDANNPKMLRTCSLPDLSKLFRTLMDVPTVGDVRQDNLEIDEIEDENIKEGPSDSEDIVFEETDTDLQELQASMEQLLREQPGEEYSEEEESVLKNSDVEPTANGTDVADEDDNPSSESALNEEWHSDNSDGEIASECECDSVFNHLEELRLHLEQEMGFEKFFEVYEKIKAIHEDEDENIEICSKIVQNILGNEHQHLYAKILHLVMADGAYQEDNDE
Method: as §1

CaMKIIα(h) = target: T14, CaMKIIα(h) (Homo sapiens, UniProt Q9UQM7)
T14 construct: purchased Eurofins Cerep SA (KinaseProfiler)
Method: as §1

MEK2(h) = target: T15, MEK2(h) (Homo sapiens, UniProt P36507)
T15 construct: purchased Eurofins Cerep SA (KinaseProfiler)
Method: as §1

TLK2(h) = target: T16, TLK2(h) (Homo sapiens, UniProt Q86UE8)
T16 construct: purchased Eurofins Cerep SA (KinaseProfiler)
Method: as §1

DNA-PK(h) = target: T17, DNA-PK(h) (Homo sapiens, UniProt P78527)
T17 construct: purchased Eurofins Cerep SA (KinaseProfiler)
Method: as §1

Arg(h) = target: T18, Arg(h) (Homo sapiens, UniProt P42684)
T18 construct: purchased Eurofins Cerep SA (KinaseProfiler)
Method: as §1

ALK6(h) = target: T19, ALK6(h) (Homo sapiens, UniProt O00238)
T19 construct: purchased Eurofins Cerep SA (KinaseProfiler)
Method: as §1

B-Raf(h) = target: T20, B-Raf(h) (Homo sapiens, UniProt P15056)
T20 construct: purchased Eurofins Cerep SA (KinaseProfiler)
Method: as §1

TYK2(h) = target: T21, TYK2(h) (Homo sapiens, UniProt P29597)
T21 construct: purchased Eurofins Cerep SA (KinaseProfiler)
T21 sequence (P29597 whole entry): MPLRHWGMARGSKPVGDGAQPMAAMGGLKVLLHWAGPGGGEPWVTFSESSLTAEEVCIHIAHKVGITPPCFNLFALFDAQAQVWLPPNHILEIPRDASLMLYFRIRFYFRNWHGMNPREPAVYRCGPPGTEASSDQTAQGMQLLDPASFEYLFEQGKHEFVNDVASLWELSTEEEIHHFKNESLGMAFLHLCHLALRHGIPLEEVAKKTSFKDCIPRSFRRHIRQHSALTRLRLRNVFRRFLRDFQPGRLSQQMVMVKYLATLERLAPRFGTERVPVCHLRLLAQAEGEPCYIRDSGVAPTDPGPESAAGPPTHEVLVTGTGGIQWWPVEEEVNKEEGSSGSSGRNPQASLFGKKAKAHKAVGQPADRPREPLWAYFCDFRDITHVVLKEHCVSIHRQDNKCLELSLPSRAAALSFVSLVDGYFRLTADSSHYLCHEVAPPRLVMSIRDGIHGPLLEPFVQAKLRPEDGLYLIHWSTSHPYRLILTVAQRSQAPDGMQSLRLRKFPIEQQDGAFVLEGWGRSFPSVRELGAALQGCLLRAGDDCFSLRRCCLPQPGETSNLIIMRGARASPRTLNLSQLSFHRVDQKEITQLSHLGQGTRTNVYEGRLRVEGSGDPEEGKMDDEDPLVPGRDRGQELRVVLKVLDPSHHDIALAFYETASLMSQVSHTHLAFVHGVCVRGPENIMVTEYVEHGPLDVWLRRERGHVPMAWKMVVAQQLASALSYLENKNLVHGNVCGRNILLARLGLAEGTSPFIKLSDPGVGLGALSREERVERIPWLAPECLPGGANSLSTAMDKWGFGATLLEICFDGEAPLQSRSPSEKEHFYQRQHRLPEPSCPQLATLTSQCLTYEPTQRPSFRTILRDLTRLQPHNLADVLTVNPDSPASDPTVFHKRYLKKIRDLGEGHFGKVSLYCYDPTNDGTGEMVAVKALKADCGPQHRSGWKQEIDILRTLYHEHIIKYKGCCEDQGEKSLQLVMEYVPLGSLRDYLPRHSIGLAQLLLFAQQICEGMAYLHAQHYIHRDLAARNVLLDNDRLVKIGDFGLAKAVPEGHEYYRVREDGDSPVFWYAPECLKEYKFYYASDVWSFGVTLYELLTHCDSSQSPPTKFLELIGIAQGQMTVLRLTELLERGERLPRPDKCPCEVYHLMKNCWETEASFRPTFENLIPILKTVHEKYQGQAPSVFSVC
Method: as §1

SAPK2a(h) = target: T22, SAPK2a(h) (Homo sapiens, UniProt Q16539)
T22 construct: purchased Eurofins Cerep SA (KinaseProfiler)
T22 sequence (Q16539 whole entry): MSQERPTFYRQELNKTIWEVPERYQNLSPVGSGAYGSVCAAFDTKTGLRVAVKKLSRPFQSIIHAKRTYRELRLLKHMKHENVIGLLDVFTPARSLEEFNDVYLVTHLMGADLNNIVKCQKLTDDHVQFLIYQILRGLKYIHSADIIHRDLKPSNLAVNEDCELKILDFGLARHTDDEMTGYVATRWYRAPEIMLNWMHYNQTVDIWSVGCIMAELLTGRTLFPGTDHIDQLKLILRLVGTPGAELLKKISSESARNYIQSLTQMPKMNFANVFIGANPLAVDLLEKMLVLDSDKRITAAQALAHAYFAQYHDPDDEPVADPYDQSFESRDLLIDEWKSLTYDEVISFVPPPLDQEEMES
Method: as §1

EGFR(h) = target: T23, EGFR(h) (Homo sapiens, UniProt P00533)
T23 construct: purchased Eurofins Cerep SA (KinaseProfiler)
Method: as §1

PAR-1Bα(h) = target: T24, PAR-1Bα(h) (Homo sapiens, UniProt Q7KZI7)
T24 construct: purchased Eurofins Cerep SA (KinaseProfiler)
Method: as §1

CDK14/cyclinY(h) = target: T25, CDK14/cyclinY(h) (Homo sapiens, UniProt O94921)
T25 construct: purchased Eurofins Cerep SA (KinaseProfiler)
T25 sequence (O94921 whole entry): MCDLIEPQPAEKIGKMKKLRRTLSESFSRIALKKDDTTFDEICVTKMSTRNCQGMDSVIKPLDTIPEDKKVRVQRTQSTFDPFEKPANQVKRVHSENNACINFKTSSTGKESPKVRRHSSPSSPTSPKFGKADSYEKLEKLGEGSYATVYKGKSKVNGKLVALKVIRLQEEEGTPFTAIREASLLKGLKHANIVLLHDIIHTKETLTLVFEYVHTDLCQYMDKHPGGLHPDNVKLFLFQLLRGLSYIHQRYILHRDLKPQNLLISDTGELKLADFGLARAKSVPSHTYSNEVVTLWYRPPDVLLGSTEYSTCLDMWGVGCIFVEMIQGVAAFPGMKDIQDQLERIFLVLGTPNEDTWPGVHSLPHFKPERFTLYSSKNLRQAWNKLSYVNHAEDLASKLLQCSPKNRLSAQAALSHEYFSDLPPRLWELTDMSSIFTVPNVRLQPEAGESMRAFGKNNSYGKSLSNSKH
T25 sequence (Q8ND76 whole entry partner): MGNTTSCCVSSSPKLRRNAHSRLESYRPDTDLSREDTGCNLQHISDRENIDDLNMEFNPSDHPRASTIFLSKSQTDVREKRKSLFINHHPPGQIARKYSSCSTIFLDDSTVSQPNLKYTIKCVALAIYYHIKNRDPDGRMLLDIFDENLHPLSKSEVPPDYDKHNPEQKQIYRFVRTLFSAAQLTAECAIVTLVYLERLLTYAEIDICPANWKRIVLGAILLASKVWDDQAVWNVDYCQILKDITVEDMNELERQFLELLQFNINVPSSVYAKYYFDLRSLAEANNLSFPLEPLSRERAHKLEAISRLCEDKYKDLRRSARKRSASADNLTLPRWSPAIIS
Method: as §1

MRCKα(h) = target: T26, MRCKα(h) (Homo sapiens, UniProt Q5VT25)
T26 construct: purchased Eurofins Cerep SA (KinaseProfiler)
Method: as §1

NEK3(h) = target: T27, NEK3(h) (Homo sapiens, UniProt P51956)
T27 construct: purchased Eurofins Cerep SA (KinaseProfiler)
Method: as §1

NEK2(h) = target: T28, NEK2(h) (Homo sapiens, UniProt P51955)
T28 construct: purchased Eurofins Cerep SA (KinaseProfiler)
Method: as §1

MuSK(h) = target: T29, MuSK(h) (Homo sapiens, UniProt O15146)
T29 construct: purchased Eurofins Cerep SA (KinaseProfiler)
Method: as §1

DAPK1(h) = target: T30, DAPK1(h) (Homo sapiens, UniProt P53355)
T30 construct: purchased Eurofins Cerep SA (KinaseProfiler)
Method: as §1

ChaK1(h) = target: T31, ChaK1(h) (Homo sapiens, UniProt Q96QT4)
T31 construct: purchased Eurofins Cerep SA (KinaseProfiler)
Method: as §1

SIK3(h) = target: T32, SIK3(h) (Homo sapiens, UniProt Q9Y2K2)
T32 construct: purchased Eurofins Cerep SA (KinaseProfiler)
Method: as §1

EphA5(h) = target: T33, EphA5(h) (Homo sapiens, UniProt P54756)
T33 construct: purchased Eurofins Cerep SA (KinaseProfiler)
Method: as §1

CK1δ(h) = target: T34, CK1δ(h) (Homo sapiens, UniProt P48730)
T34 construct: purchased Eurofins Cerep SA (KinaseProfiler)
Method: as §1

PI3 Kinase (p120g)(h) = target: T35, PI3 Kinase (p120g)(h) (Homo sapiens, UniProt P48736)
T35 construct: purchased Eurofins Cerep SA (KinaseProfiler)
Method: as §1

MOK(h) = target: T36, MOK(h) (Homo sapiens, UniProt Q9UQ07)
T36 construct: purchased Eurofins Cerep SA (KinaseProfiler)
Method: as §1

p70S6K(h) = target: T37, p70S6K(h) (Homo sapiens, UniProt P23443)
T37 construct: purchased Eurofins Cerep SA (KinaseProfiler)
Method: as §1

ASK1(h) = target: T38, ASK1(h) (Homo sapiens, UniProt Q99683)
T38 construct: purchased Eurofins Cerep SA (KinaseProfiler)
Method: as §1

STK32B(h) = target: T39, STK32B(h) (Homo sapiens, UniProt Q9NY57)
T39 construct: purchased Eurofins Cerep SA (KinaseProfiler)
Method: as §1

JNK1α1(h) = target: T40, JNK1α1(h) (Homo sapiens, UniProt P45983)
T40 construct: purchased Eurofins Cerep SA (KinaseProfiler)
T40 sequence (P45983 1-384 isoform P45983-2): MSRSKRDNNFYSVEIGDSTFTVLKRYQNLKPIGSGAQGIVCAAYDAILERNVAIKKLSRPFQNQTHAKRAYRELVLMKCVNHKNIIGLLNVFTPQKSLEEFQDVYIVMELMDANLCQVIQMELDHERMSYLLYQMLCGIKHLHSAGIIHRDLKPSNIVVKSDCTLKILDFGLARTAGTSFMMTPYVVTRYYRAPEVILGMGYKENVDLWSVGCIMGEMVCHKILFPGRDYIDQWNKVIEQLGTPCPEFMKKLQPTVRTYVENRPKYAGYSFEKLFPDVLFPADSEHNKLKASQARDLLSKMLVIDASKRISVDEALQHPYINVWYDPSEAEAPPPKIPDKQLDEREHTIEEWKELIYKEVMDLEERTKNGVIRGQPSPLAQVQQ
Method: as §1

ALK4(h) = target: T41, ALK4(h) (Homo sapiens, UniProt P36896)
T41 construct: purchased Eurofins Cerep SA (KinaseProfiler)
Method: as §1

In the case of `CN(C)Cc1cccc(Nc2ncc(Cl)c(-c3csc(C(=O)NN4CCOCC4)c3)n2)c1` [SKLB-D18, 4-(5-chloro-2-((3-((dimethylamino)methyl)phenyl)amino)pyrimidin-4-yl)-N-morpholinothiophene-2-carboxamide], the inhibition at 1 µM (MAP4K3(h)) is reported as 60%, the inhibition at 1 µM (Itk(h)) is reported as 23% and the inhibition at 1 µM (Pyk2(h)) is reported as 46%. For the same molecule, the inhibition at 1 µM (TrkA(h)) was 48%, the inhibition at 1 µM (SRPK1(h)) was -2% and the inhibition at 1 µM (TrkC(h)) was 43%. The inhibition at 1 µM (PKD2(h)) was 66%, the inhibition at 1 µM (NLK(h)) was 26% and the inhibition at 1 µM (MEK1(h)) was 15%. It also gave an inhibition at 1 µM (DDR2(h)) of -2%, an inhibition at 1 µM (DYRK2(h)) of 41% and an inhibition at 1 µM (TSSK3(h)) of 53%. It also gave an inhibition at 1 µM (NEK1(h)) of 48%, an inhibition at 1 µM (CaMKIIα(h)) of -25% and an inhibition at 1 µM (MEK2(h)) of 59%. For the same molecule, the inhibition at 1 µM (TLK2(h)) was 52%, the inhibition at 1 µM (DNA-PK(h)) was 10% and the inhibition at 1 µM (Arg(h)) was 43%. It also gave an inhibition at 1 µM (ALK6(h)) of 10%, an inhibition at 1 µM (B-Raf(h)) of 59% and an inhibition at 1 µM (TYK2(h)) of 83%. The inhibition at 1 µM (SAPK2a(h)) was 9%, the inhibition at 1 µM (EGFR(h)) was -10% and the inhibition at 1 µM (PAR-1Bα(h)) was 65%. It also gave an inhibition at 1 µM (CDK14/cyclinY(h)) of 58%, an inhibition at 1 µM (MRCKα(h)) of 2% and an inhibition at 1 µM (NEK3(h)) of 63%. For the same molecule, the inhibition at 1 µM (NEK2(h)) was 42%, the inhibition at 1 µM (MuSK(h)) was 20% and the inhibition at 1 µM (DAPK1(h)) was 67%. The inhibition at 1 µM (ChaK1(h)) was 0%, the inhibition at 1 µM (SIK3(h)) was 22% and the inhibition at 1 µM (EphA5(h)) was 3%. The inhibition at 1 µM (CK1δ(h)) was 16%, the inhibition at 1 µM (PI3 Kinase (p120g)(h)) was 4% and the inhibition at 1 µM (MOK(h)) was 31%. It also gave an inhibition at 1 µM (p70S6K(h)) of 57%, an inhibition at 1 µM (ASK1(h)) of -5% and an inhibition at 1 µM (STK32B(h)) of -3%. The inhibition at 1 µM (JNK1α1(h)) was 40% and the inhibition at 1 µM (ALK4(h)) was 26%.
